What was measured:
[1] = tested on: monosodium iodoacetate (MIA)-induced osteoarthritis (OA), right knee joint; experiment: Diameter of right knee joint in MIA-induced OA rats; type: in vivo, Sprague Dawley rats; details: 30 μL intraarticular on day 3 and day 14, measured end of day 28 with caliper, FIG. 1
Protocol: A. Preparation of mixture containing EGF, CS, and HA EGF, CS, and HA were mixed in a weight ratio of 1:100:1000 in sterile water, so as to obtain a mixture containing EGF (20 μg/g), CS, and HA.
Male Sprague Dawley rats (6 weeks old, with a body weight of approximately 200 to 300 g) used in the following experiments were purchased from National Laboratory Animal Center, Taipei City, Taiwan. All the experimental mice were housed in an animal room under the following laboratory conditions: an alternating 12-hour light and 12-hour dark cycle, a temperature maintained at 21° C. to 24° C., and a relative humidity maintained at 45% to 70%. Furthermore, water and feed were provided ad libitum for all the experimental mice. All experimental procedures involving the experimental mice were in compliance with the legal provision of the Institutional Animal Care and Use Committee of National Chung Hsing University, Taiwan, and were carried out according to the Guide for the Care and Use of Laboratory Animals of National Institutes of Health (NIH).
The Sprague Dawley rats were divided into five groups, including one normal control group, one pathological control group, one comparative group, and two experimental groups (i.e., experimental groups 1 to 2) (n=5 rats in each group). […]
The data thus obtained were analyzed according to the method described in section 1 of “General Procedures”.

[2] = tested on: knee joint tissue of the hind leg, CII-induced RA; experiment: Histopathologic analysis of knee joint tissue of the hind leg, collagen-induced RA; type: in vivo, DBA/1 mice; details: mice; for morphological observation of cartilage structure and surface: knee joint of hind leg after day 42, data not shown
Protocol: 2 mg/mL of a Chick type II collagen (CII) solution (Chondrex Inc., Cat. No. 20012) (in 10 mM acetic acid) was mixed with complete Freund's adjuvant (Sigma Aldrich, Cat. No. F5881-10ML) at a ratio of 1:1 (v/v), so as to obtain a first CII emulsion. 2 mg/mL of a Chick type CII solution was mixed with incomplete Freund's adjuvant (ChemCruzx, Cat. No. sc-24648) at a ratio of 1:1 (v/v), so as to obtain a second CII emulsion.
The female DBA/1 mice were divided into five groups, including one normal control group, one pathological control group, one comparative group, and two experimental groups (i.e., experimental groups 1 to 2) (n=6 mice in each group). 200 μL of the first CII emulsion was injected subcutaneously into the tail of the respective mouse of the pathological control group, the comparative group, and the two experimental groups. The mice were subjected to a boost injection using 200 μL of the second CII emulsion on the 21st day after the initial immunization, so as to induce the occurrence of RA. In addition, the rats of the normal control group were injected with an adjuvant solution (in PBS).
After completion of the boost injection, the respective mouse in the comparative group was intraperitoneally injected with 100 μL of 1% HA, the respective mouse in the experimental group 1 was intraperitoneally injected with 100 μL of the EGF solution (containing 20 μg/g EGF) prepared in section C of Example 1, the respective mouse in the experimental group 2 was intraperitoneally injected with 100 μL of the mixture solution (containing 20 μg/g EGF) prepared in section C of Example 1. Each mouse was administered once daily for a total period of 20 days.
After completion of the evaluation of RA severity as described in section C of this example, the mice in each group were sacrificed by virtue of 95% CO2 asphyxiation, and the knee joint tissue of the hind leg and the sole tissue were obtained from each mouse carcass. The knee joint tissue of the hind leg of each mouse was subjected to histological sectioning, hematoxylin-eosin staining, and microscopic observation in sequence according to the methods described in section F of Example 1.
Next, the pathological symptoms (i.e., inflammatory cell infiltration, synovial hyperplasia, and cartilage surface erosion) in the respective tissue section was assessed according to the method described in Deng G. M. et al. (2005), Nat Med., 11:1066-1072. The degrees of inflammatory cell infiltration, synovial hyperplasia, and cartilage surface erosion were scored on a scale from 1 to 4. The higher the scale, the higher the severity of the pathological symptom is.
The data thus obtained were analyzed according to the method described in section 1 of the “General Procedures”.

| Substance | diameter of the right knee joint [1] | morphological observation of cartilage structure and surface [2] | scale of cartilage surface erosion (scale 1 to 4) ([2]; knee joint of hind leg, FIG. 7) | scale of inflammatory cell infiltration (scale 1 to 4) ([2]; knee joint of hind leg, FIG. 7) | scale of synovial hyperplasia (scale 1 to 4) ([2]; knee joint of hind leg, FIG. 7) |
| --- | --- | --- | --- | --- | --- |
| EGF: Epidermal growth factor (Cat. No. 02-108, Joycom Bio-chem) dissolved in PBS, 20 μg/g EGF; given to experimental group 1 (NSDSECPLSHDGYCLHDGVCMYIEALDKYACNCVVGYIGERCQYRDLKWWELR; UniProt P01133 971-1023, looked up) | lower than that determined in the pathological control group | the cartilage structure was partially damaged, and a partially intact cartilage surface was observed | apparently or significantly lower than those determined in the pathological control group | apparently or significantly lower than those determined in the pathological control group | apparently or significantly lower than those determined in the pathological control group |
| hyaluronic acid [HA, reference compound] | lower than that determined in the pathological control group | the cartilage structure was partially damaged, and a partially intact cartilage surface was observed |  |  |  |

— patent US20230149510A1, “METHOD FOR ALLEVIATING ARTHRITIS USING EPIDERMAL GROWTH FACTOR” (Lovin BioMed Co., Ltd., priority 2021, published 2023)
